Entries after “also recorded” stand apart in the source; their conditions may differ.
Tests used:
[1] = tested on: panic-prone (1-AG treated) rats; assay: Sodium lactate (NaLac) challenge in panic-prone rats: radio-telemetry of locomotor and cardiovascular (HR, MAP) responses; type: in vivo, rat
Method: Telemetry probes (Data Science International, St. Paul Minn.) were surgically implanted into the abdomen of anaesthetize rats to measure locomotor responses. Cardiovascular responses were measured by a femoral arterial line connected to the telemetric probe which contained a pressure transducer (Data Science International, St. Paul Minn.).
The minipump was then sutured into place subcutaneously at the nape of the neck. The concentration of the solutions was such that 3.5 nmol/[…] per hour of 1-AG or d-AG was infused continuously into the DMH/PeF region for the remainder of the given experiment. In the case of the siRNA experiments specialized T-cannulae were implanted permitting access to a removable 28 g injector to direct siRNA injections to the same location as the 1-AG infusions. Additionally these rats had guide cannulae directed to the opposite DMH/PeF for bilateral infusion of siRNA.
Rats received intravenous (i.v.) infusions (10 ml over 15 min of either 0.5M NaLac or 0.9% isotonic saline (when applicable)) using a syringe pump at least five days following the initiation of 1-AG or d-AG infusions. Once a stable baseline was achieved, i.v. infusions began and cardiovascular and activity data were recorded for 15 min (similar to clinical NaLac infusions).
Cardiovascular responses (i.e., MAP and HR) were measured by a femoral arterial line connected to a telemetric probe which contained a pressure transducer (Cat. no. C50-PXT, Data Science International (DSI) St. Paul Minn.). […] MAP and HR were recorded continuously in freely moving conscious rats and are expressed as a 20 min time course. The data reported are changes in HR and MAP from the average of the baseline (t−5 to t−1) from each rat. […]
In experiments 4-6, rats were made panic vulnerable with 1-AG. 5 days after 1-AG onset, in a counterbalanced design, rats received intraperitoneal (i.p.) injections of treatment drug or vehicle 30 min prior to i.v. infusions. […] In experiment 5, baseline in an open field (OF) behavior test of anxiety was assessed (n=8) prior to 1-AG infusions. […] Immediately following the NaLac challenge, rats were placed in the OF test. […] In experiment 6,1-AG treated rats received an injection of an alternative ORX1 receptor antagonist (30 mg/kg SB408124 (N-(6,8-Difluoro-2-methyl-4-quinolinyl)-N′-(4-(dimethylamino)phenyl)urea), Tocris, in 0.2 ml/100 g volume DMSO, n=4) or vehicle (0.2 ml/100 g volume DMSO, n=6) 30 min prior to NaLac. In experiment 7, control rats (no 1-AG or NaLac treatment) were assessed in a SI test.
Adult male Sprague-Dawley rats were anesthetized and surgically implanted with telemetrical probes to measure cardiovascular activity prior to and during lactate infusions. After a 3 day recovery, rats were anaesthetized and had osmotic minipumps (previously filled with 1-AG) stereotaxically implanted unilaterally into the DMH. […] 1960, Tocris, in 0.2 ml/100 g volume DMSO, n=12], alprazolam (3 mg/kg, Sigma, in 0.2 ml/100 g volume DMSO, n=6) or vehicle (0.2 ml/100 g volume DMSO, n=11) 30 min prior lactate challenge.

[2] = tested on: panic-prone (1-AG treated) rats; assay: Defensive burying (defensive shock) test after NaLac challenge in panic-prone rats; type: in vivo, rat; conditions: 1-AG+NaLac rats
Method: The defensive burying test is a validated test of experimental anxiety and defensive-like behavior in rats. For four consecutive days before defensive burying test (days 3, 4, 5 and 6 post 1-AG onset), rats were acclimated to the testing apparatus by placing them for 10 min in the testing cage (a polycarbonate rat housing cage, 30.5 cm width×30.5 cm height×61 cm length) with 2.5 cm of bedding covering the floor and a small hole centered on a short dimension of the cage 2.5 cm above the bedding to accommodate the deactivated shock probe. The shock probe was 1 cm in diameter and extended 6 cm into the cage. Along the entire length of the exposed probe, 2 un-insulated wires were wrapped in parallel (not touching) so that the rat could not touch the probe without getting a shock. […] The shock intensity was set at 0.7 mA for the entire duration of testing so that the rat received a shock whenever the prod was contacted with its forepaws or snout. […] Behavioral assessments were made using software (ODLog Macropod Software for Windows, version 2.5.2) with different keystrokes coupled to each defensive behavior to accurately measure incidence and duration of each. The repertoire of behavioral reactions during a defensive burying test is well delineated and catalogued in rats. These behaviors include: 1) burying behavior, defined as duration spent pushing, shoveling, flicking and digging sawdust towards and around the prod with rapid movements of the snout and forepaws; 2) Freezing, defined as immobility with the body motionless; 3) probe exploration, defined as time spent on half of cage with probe; 4) rearing, defined as raising the body on the hind limbs in a vertical position; 5) ambulations, defined as number of times rat crossed from side of cage with probe to other; and also 5) grooming, defined as face washing, scratching, tail biting and licking of the body.
On day 1 adult male Sprague-Dawley rats (n=3/group) were anaesthetized and had osmotic minipumps (previously filled with 1-AG) stereotaxically implanted unilaterally into the DMH/PeF. […] Behavioral assessments were made using software (ODLog Macropod Software for Windows, version 2.5.2) with different keystrokes coupled to each defensive behavior to accurately measure incidence and duration of each.

[3] = in vivo; cited from earlier work
[4] = 30 mg/kg i.p., experiment 5 (open field cohort)
[5] = i.p. 30 min prior to NaLac, SB334867/SB408124 30 mg/kg, alprazolam 3 mg/kg, experiments 4 and 6

For `Cc1nc2ccc(NC(=O)Nc3ccnc4cccnc34)cc2o1` [SB334867, N-(2-Methyl-6-benzoxazolyl)-N′-1,5-naphthyridin-4-yl urea], the “NaLac induced increases in heart rate (HR)” value [1, 4] was “attenuated”, the “NaLac induced increases in mean arterial blood pressure (MAP)” value [1, 4] was “attenuated” and the “NaLac induced increases in heart rate (HR)” value [1, 5] was “attenuated; also recorded: blocked”. For the same molecule, the “NaLac induced increases in mean arterial blood pressure (MAP)” value [1, 5] was “attenuated; also recorded: blocked”, the “grooming in defensive burying test” value ([2]; 30 mg/kg i.p.) was “No differences were detected” and the “rearing in defensive burying test” value ([2]; 30 mg/kg i.p.) was “No differences were detected”. The “time spent near probe in defensive burying test” value ([2]; 30 mg/kg i.p.) was “No differences were detected”, the “NaLac-induced freezing (immobility) in defensive burying test” value ([2]; 30 mg/kg i.p. 30 min prior, 30 mg/kg) was “completely blocked; also recorded: blocks” and the “number of times crossed line dividing halves of test cage (mid-line crossings)” value ([2]; 30 mg/kg i.p., sedation indicator, 30 mg/kg) was “No differences were detected”. The blood-brain barrier passage [3] was “crosses the blood-brain barrier”.
